Series [1] deals with cell lines. To be noted: transfection of certain cell lines, compared with DOTMA; cited from earlier work.
Series [2] deals with cell lines. To be noted: certain cell lines, compared with DOTMA; cited from earlier work.
Series [3] concerns anti-CAT immune response in mice. The series can be described thus: ELISA and Western blot after IP immunization with CAT plasmids with different promoters (Example 3). The conditions noted are these: compared with LIPOFECTACE
In kind it is in vivo. Here is the method: A CAT enzyme-linked immunoassay (ELISA) was used to determine the presence of CAT antibodies in mouse sera samples. Microwell titer plates were prepared by incubating each well of the plate with 1 microgram/ml of CAT in 0.1 M sodium carbonate buffer, pH 9.5. The plates were incubated for 18 hours at 4ΕC. The wells were blocked with 0.2% ovalbumin dissolved in phosphate-buffered saline (PBS) with 0.1% Tween-20 (dilution buffer). Samples were diluted in the dilution buffer, and 200 microliters were added to a well on the plate. The plate was sealed, and then incubated for 60 minutes at 37 degrees C. Following a wash, the plates were incubated with 0.1 micrograms/ml goat anti-mouse IgG—horseradish peroxidase (HRP) conjugate. The plate was sealed and then incubated for 30 minutes at 37 degrees C. Following a second wash, the plates were developed with 3,3′,5,5′-tetramethylbenzidine substrate at room temperature. The reaction was stopped by adding 2N sulfuric acid.
The results were analyzed using Western Blot analysis. Nitrocellulose sheets were prepared by applying purified CAT protein to the nitrocellulose (0.1 micrograms CAT protein/cm nitrocellulose). Sera samples were diluted into dilution buffer and 2 ml were added to each nitrocellulose strip. The strips were incubated for 90 minutes with rocking at room temperature. […]
In general terms: ELISA stands for enzyme-linked immunosorbent assay.

For the compound `CCCCCCCCCCCCCCCCCCN(CCCCCCCCCCCCCCCCCC)C(=O)CNC(=O)C(CCCNCCCN)NCCCN` (stereo not shown) [DOGS, 5-carboxylspermylglycine dioctadecylamide], the toxicity entry in the series with cell lines [1] is recorded as “less toxic than DOTMA”. Further, in the series with cell lines [2], the transfection efficiency result was “more efficient”. Consider `CCCCCCCCC=CCCCCCCCCOCC(C[N+](C)(C)CCBr)OCCCCCCCCC=CCCCCCCCC.[Br-]` (stereo not shown) [bromo lipid, 1-propanaminium, N-[2(2-bromo)ethyl]-N,N-dimethyl-2,3-bis(9-octadecenyloxy)-bromide], for which the “consistency in generating an immune response (ELISA)” value in series [3] is recorded as “more consistent results”. For `CC(C)CCC[C@@H](C)[C@H]1CC[C@H]2[C@@H]3CC=C4C[C@@H](OC(=O)NCCN(C)C)CC[C@]4(C)[C@H]3CC[C@]12C` [DC-Chol], the toxicity entry in the series with cell lines [1] is “lower toxicity”. For the same compound, the transfection efficiency entry in the series on cell lines [2] is reported as “more efficient transfection”. For the compound `CCCCCCCCCCCCCCCC(=O)OCC(COP(=O)(O)OCCNC(=O)C(CCCNCCCN)NCCCN)OC(=O)CCCCCCCCCCCCCCC` (stereo not shown) [DPPES, dipalmitoylphosphatidylethanolamine 5-carboxyspermylamide], the toxicity result with cell lines [1] is on record as “less toxic than DOTMA”. The transfection efficiency result in the series with cell lines [2] is listed as “more efficient”.

The values are drawn from US7166298B2, “Genetic immunization with cationic lipids” (Invitrogen Corporation, priority 1993, dated 2007).
